Results taken from US9751837B2, “Kinase inhibitors” (RESPIVERT LIMITED, priority 2014, dated 2017).
In brackets after ≈: the same amount, converted by molar mass. Where a name gives a salt, the structure may show the parent alone. Read-outs that look alike come from different tables or passages of the source.

Tests used:
[1] = target: human ether a go-go (hERG) channel (Homo sapiens (Human), UniProt Q12809); assay: hERG inhibition, IonWorks patch clamp electrophysiology; assay type: cell-based; settings: IonWorks patch clamp
Procedure: (§1) Compounds of the invention were tested for inhibition of the human ether a go-go (hERG) channel using IonWorks™ patch clamp electrophysiology at Essen Bioscience (Welwyn Garden City, England).

hERG = hERG (Homo sapiens (Human), UniProt Q12809); assay: as above; assay type: cell-based; settings: human, hERG, read-out: % Inhibition at Top Concentration
Procedure: as §1

GSK 3α = GSK 3α (Homo sapiens (Human), UniProt P49840); assay: GSK 3α enzyme inhibition (Method 2), Z-LYTE FRET; assay type: biochemical; settings: read-out: IC50 Values for Enzyme Inhibition GSK3α
Method in brief: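 Z-LYTE format: the protease cleaves only non-phosphorylated peptide, and the donor/acceptor (coumarin/fluorescein) ratio reports phosphorylation after a 1 hr kinase reaction with peptide (8 μM stock) and ATP (40 μM stock).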

Jurkat cells = assay: Cell cytotoxicity assay (r); assay type: cell-based, human; settings: 24 hours
Method in brief: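 Viability read by flow cytometry as the fraction of propidium iodide-negative cells (7.5 μg/mL PI, 15 min), relative to 1.0% DMSO control. Beforehand, 1×10^5 Jurkat cells in RPMI/10% FBS were treated 24 h at 37° C., 5% CO2 with test compound at final 20, 5 or 1 μg/mL.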

[2] = Stability of pharmaceutical formulations (HPLC); assay type: physicochemical; settings: 1 mg/mL solution; for Purity (%) at week n = 4: 4 weeks
Procedure: The samples were sonicated to achieve clear solutions having the following properties: Osmolality (mOsm/kg): 310 (Na), 314 (HCl); pH: 7.00 (Na), 7.05 (HCl). 0.5 mL of the stock solutions were diluted to 1 mL with 20% DMSO in water & injected for purity analysis by HPLC. The remaining stock solutions were then split into aliquots of 0.5 mL in HPLC vials, and stored at various conditions in duplicate. Samples were stored at 5 and 25° C., before being analysed by HPLC at 1, 2 and 4 weeks. Separate samples were stored at 40° C. and analysed at 4 weeks.

[3] = Solubility in fasted-state simulated colonic fluid (FaSSCoF) at pH 6.5; assay type: physicochemical; settings: 25 °C, pH 6.5, fassgf or other biorelevant, thermodynamic from solid
Method in brief: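 Compounds were suspended at up to 2-10 mg/mL in pH 6.5 Tris/maleate FaSSCoF containing a five-bile-acid mixture, phosphatidylcholine, palmitic acid and BSA. After 24 h equilibration at 25° C the suspension was filtered and the filtrate quantified by HPLC peak area against a standard.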

non-mutant kinases = assay: KinomeScan Selectivity Scores; assay type: binding; settings: for KinomeScan Selectivity Score S(1): (non-mutant kinases with % Ctrl <1)/(non-mutant kinases tested)
Description: (§2) These assays may be conducted by DiscoverX (formerly Ambit; San Diego, Calif.).

B-Raf (V600E) = B-Raf (V600E) (Homo sapiens (Human), UniProt P15056, V600E); assay: KINOMEscan binding of B-Raf (V600E) to its standard ligand
Description: as §2

B-Raf = B-Raf (Homo sapiens (Human), UniProt P15056); assay: KINOMEscan binding of B-Raf to its standard ligand
Description: as §2

[4] = pH 6.5 FaSSCoF Solubility (mg/mL) Run 1
[5] = pH 6.5 FaSSCoF Solubility (mg/mL) Run 2

Chain of GSK 3α (P49840 whole entry): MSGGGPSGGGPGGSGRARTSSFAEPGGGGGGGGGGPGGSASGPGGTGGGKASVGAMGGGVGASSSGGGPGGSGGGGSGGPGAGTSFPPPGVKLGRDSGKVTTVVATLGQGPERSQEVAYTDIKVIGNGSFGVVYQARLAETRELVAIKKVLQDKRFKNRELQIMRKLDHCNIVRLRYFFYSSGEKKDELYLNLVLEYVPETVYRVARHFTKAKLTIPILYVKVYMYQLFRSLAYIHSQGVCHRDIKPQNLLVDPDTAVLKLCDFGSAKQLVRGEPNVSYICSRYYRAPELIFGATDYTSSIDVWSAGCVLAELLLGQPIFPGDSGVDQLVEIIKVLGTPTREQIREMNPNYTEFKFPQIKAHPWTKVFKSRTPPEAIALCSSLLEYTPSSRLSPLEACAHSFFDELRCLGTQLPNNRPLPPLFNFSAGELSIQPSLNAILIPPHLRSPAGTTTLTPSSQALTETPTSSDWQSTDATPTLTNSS
Chain of hERG (Q12809 whole entry): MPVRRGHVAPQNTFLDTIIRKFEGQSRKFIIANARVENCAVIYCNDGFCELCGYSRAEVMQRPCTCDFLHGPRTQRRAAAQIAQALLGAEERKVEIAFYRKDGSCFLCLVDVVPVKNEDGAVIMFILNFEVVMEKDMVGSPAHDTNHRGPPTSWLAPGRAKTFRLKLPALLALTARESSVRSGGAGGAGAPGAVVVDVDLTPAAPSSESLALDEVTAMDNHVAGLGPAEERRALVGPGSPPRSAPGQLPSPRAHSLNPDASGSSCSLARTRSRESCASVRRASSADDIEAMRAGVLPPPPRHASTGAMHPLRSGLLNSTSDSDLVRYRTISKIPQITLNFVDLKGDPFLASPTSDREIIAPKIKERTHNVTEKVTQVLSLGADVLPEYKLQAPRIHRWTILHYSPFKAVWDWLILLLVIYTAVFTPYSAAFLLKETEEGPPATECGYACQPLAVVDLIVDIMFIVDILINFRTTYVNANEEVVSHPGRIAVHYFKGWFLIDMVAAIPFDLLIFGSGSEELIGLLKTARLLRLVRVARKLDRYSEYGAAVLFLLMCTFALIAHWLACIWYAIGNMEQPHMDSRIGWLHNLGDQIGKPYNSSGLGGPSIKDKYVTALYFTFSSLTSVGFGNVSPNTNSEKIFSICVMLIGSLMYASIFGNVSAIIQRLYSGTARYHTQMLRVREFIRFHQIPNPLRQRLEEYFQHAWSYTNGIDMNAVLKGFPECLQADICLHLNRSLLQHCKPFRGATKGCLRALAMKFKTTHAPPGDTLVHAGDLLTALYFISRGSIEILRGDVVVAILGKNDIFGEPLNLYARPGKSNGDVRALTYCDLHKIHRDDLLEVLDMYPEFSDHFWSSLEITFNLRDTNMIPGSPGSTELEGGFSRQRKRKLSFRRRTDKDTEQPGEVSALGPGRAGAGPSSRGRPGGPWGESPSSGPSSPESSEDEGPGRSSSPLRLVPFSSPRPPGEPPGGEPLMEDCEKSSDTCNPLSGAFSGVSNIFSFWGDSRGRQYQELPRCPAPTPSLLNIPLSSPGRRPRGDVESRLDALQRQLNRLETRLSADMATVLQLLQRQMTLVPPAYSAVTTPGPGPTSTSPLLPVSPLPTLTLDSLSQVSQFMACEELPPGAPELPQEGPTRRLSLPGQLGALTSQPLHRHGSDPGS
Chain of human ether a go-go (hERG) channel (Q12809 whole entry): as above
Chain of B-Raf (P15056 whole entry): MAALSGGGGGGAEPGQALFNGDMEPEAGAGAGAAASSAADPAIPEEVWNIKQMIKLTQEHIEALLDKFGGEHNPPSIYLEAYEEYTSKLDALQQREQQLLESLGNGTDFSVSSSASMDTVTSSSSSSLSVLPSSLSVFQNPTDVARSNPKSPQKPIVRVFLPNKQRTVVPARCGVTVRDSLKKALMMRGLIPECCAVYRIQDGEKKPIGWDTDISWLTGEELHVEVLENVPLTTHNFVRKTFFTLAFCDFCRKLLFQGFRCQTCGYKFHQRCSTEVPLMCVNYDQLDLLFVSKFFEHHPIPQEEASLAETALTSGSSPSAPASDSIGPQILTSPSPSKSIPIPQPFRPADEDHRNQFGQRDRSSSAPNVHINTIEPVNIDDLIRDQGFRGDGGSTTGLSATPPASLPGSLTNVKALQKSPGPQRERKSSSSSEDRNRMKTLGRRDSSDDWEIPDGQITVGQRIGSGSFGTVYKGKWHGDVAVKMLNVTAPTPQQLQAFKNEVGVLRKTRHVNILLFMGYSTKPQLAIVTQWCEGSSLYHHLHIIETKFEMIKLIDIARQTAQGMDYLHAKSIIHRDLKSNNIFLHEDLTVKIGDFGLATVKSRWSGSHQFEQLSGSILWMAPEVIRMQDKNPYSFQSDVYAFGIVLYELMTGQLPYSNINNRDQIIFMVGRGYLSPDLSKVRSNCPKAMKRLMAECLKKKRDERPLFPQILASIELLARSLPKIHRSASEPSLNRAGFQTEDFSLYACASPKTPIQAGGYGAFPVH
Chain of B-Raf (V600E) (P15056 whole entry V600E): as the sequence (P15056 whole entry) above, with V600E counted along it

Structure (SMILES) | IC50 (GSK 3α) | solubility thermodynamic at 24 h [3, 4] | solubility thermodynamic at 24 h [3, 5] | IC50 [1] | inhibition at 11 µM (hERG) | further results
COc1cc(Nc2cc(Oc3ccc(NC(=O)Nc4cc(C(C)(C)C)cc(NS(C)(=O)=O)c4OC)c4ccccc34)ccn2)ccc1C(=O)NC1CCN(C)CC1 [17(j), 4-[[4-[[4-[[5-tert-butyl-3-(methanesulfonamido)-2-methoxy-phenyl]carbamoylamino]-1-naphthyl]oxy]-2-pyridyl]amino]-2-methoxy-N-(1-methyl-4-piperidyl)benzamide] | 2 µM | – | – | > 3.3 µM | – | inhibition at 3 µM (hERG; 3 μM): 7%
COc1cc(Nc2cc(Oc3ccc(NC(=O)Nc4cc(C(C)(C)C)cc(NS(C)(=O)=O)c4OC)c4ccccc34)ccn2)ccc1C(=O)O.Cl [Example 1, hydrochloride salt] | – | – | – | – | – | Purity (%) at week n = 2 ([2]; stored at 5° C., 2 weeks): 98.0%; Purity (%) at week n = 4 ([2]; stored at 5° C.): 98.0%; Purity (%) at week n = 1 ([2]; stored at 25° C., 1 week): 98.0%
COc1cc(Nc2cc(Oc3ccc(NC(=O)Nc4cc(C(C)(C)C)cc(NS(C)(=O)=O)c4OC)c4ccccc34)ccn2)ccc1C(=O)O [Example 1, sodium salt] | – | – | – | – | – | Purity (%) at week n = 4 ([2]; stored at 40° C.): 76.0%
COc1cc(Nc2cc(Oc3ccc(NC(=O)Nc4cc(C(C)(C)C)cc(NS(C)(=O)=O)c4OC)c4ccccc34)ccn2)cc(OC)c1C(=O)NCCOCCOCCO [Example 36, 4-((4-((4-(3-(5-(tert-butyl)-2-methoxy-3-(methylsulfonamido)phenyl)ureido)naphthalen-1-yl)oxy)pyridin-2-yl)amino)-N-(2-(2-(2-hydroxyethoxy)ethoxy)ethyl)-2,6-dimethoxybenzamide] | – | 0.006 mg/mL (≈ 6.97 µM) | 0.006 mg/mL (≈ 6.97 µM) | > 11 µM | 24% | KinomeScan Selectivity Score S(1) (non-mutant kinases; 50 nM): 0.002; KinomeScan Selectivity Score S(10) (non-mutant kinases; 50 nM, (non-mutant kinases with % Ctrl <10)/(non-mutant kinases tested)): 0.050; KinomeScan Selectivity Score S(1) (non-mutant kinases; 500 nM): 0.079; effect on the binding of B-Raf (V600E) to its standard ligand (B-Raf (V600E)): did not have any significant effect; effect on the binding of B-Raf to its standard ligand (B-Raf): did not have any significant effect
COc1cc(Nc2cc(Oc3ccc(NC(=O)Nc4cc(C(C)(C)C)cc(NC(=O)CO)c4OC)c4ccccc34)ccn2)ccc1C(=O)NCCN1CC[S+]([O-])CC1 [Example 41, 4-((4-((4-(3-(5-(tert-Butyl)-3-(2-hydroxyacetamido)-2-methoxyphenyl)ureido)naphthalen-1-yl)oxy)pyridin-2-yl)amino)-2-methoxy-N-(2-(1-oxidothiomorpholino)ethyl)benzamide] | – | 0.007 mg/mL (≈ 8.5 µM) | 0.003 mg/mL (≈ 3.64 µM) | > 11 µM | 7% | –
CCOP(C)(=O)c1ccc(Nc2cc(Oc3ccc(NC(=O)Nc4cc(C(C)(C)C)cc(NS(C)(=O)=O)c4OC)c4ccccc34)ccn2)cc1OC (centres unmarked) [Example 43, ethyl (4-((4-((4-(3-(5-(tert-butyl)-2-methoxy-3-(methylsulfonamido)phenyl)-ureido)naphthalen-1-yl)oxy)pyridin-2-yl)amino)-2-methoxyphenyl)(methyl)phosphinate] | – | – | – | > 11 µM | 13% | solubility thermodynamic at 24 h ([3]; FaSSCoF pH 6.5, 25° C., 24 h, Run 1, read-out: pH 6.5 FaSSCoF Solubility (mg/mL) Run 1): 0.003 mg/mL (≈ 3.94 µM); solubility thermodynamic at 24 h ([3]; FaSSCoF pH 6.5, 25° C., 24 h, Run 2, read-out: pH 6.5 FaSSCoF Solubility (mg/mL) Run 2): 0.003 mg/mL (≈ 3.94 µM)
COc1cc(Nc2cc(Oc3ccc(NC(=O)Nc4cc(C(C)(C)C)cc(N(CCO)S(C)(=O)=O)c4OC)c4ccccc34)ccn2)ccc1C(=O)NCCN1CC[S+]([O-])CC1 [Example 48, 4-((4-((4-(3-(5-(tert-Butyl)-3-(N-(2-hydroxyethyl)methylsulfonamido)-2-methoxyphenyl)-ureido)naphthalen-1-yl)oxy)pyridin-2-yl)amino)-2-methoxy-N-(2-(1-oxidothiomorpholino)-ethyl)benzamide] | – | 0.011 mg/mL (≈ 12.4 µM) | 0.01 mg/mL (≈ 11.3 µM) | > 11 µM | -6% | % Viability at 1 μg/mL (Jurkat cells; 1 μg/mL): 89.0%

Further lines, with some results ahead:

IC50 (GSK 3α) | solubility thermodynamic at 24 h [3, 4] | solubility thermodynamic at 24 h [3, 5] | Structure (SMILES) | IC50 [1] | inhibition at 11 µM (hERG) | further results
4.68 µM | – | – | COc1cc(Nc2cc(Oc3ccc(NC(=O)Nc4cc(C(C)(C)C)cc(NS(C)(=O)=O)c4OC)c4ccccc34)ccn2)ccc1C(=O)NCCN1CCCCC1 [17(p), 4-[[4-[[4-[[5-tert-butyl-3-(methanesulfonamido)-2-methoxy-phenyl]carbamoylamino]-1-naphthyl]oxy]-2-pyridyl]amino]-2-methoxy-N-[2-(1-piperidyl)ethyl]benzamide] | – | – | % Viability at 20 μg/mL (Jurkat cells): 1.5%
2.88 µM | – | – | COc1cc(Nc2cc(Oc3ccc(NC(=O)Nc4cc(C(C)(C)C)cc(NS(C)(=O)=O)c4OC)c4ccccc34)ccn2)ccc1C(=O)NCCN1CCN(CCO)CC1 [17(z), 4-[[4-[[4-[[5-tert-butyl-3-(methanesulfonamido)-2-methoxy-phenyl]carbamoylamino]-1-naphthyl]oxy]-2-pyridyl]amino]-N-[2-[4-(2-hydroxyethyl)piperazin-1-yl]ethyl]-2-methoxy-benzamide] | – | – | % Viability at 20 μg/mL (Jurkat cells): 2.0%
2.21 µM | 0.016 mg/mL (≈ 19.4 µM) | 0.013 mg/mL (≈ 15.8 µM) | COc1cc(Nc2cc(Oc3ccc(NC(=O)Nc4cc(C(C)(C)C)cc(NS(C)(=O)=O)c4OC)c4ccccc34)ccn2)ccc1C(=O)NCCC1CCN(C)CC1 [Example 14, 4-[[4-[[4-[[5-tert-Butyl-3-(methanesulfonamido)-2-methoxy-phenyl]carbamoylamino]-1-naphthyl]oxy]-2-pyridyl]amino]-2-methoxy-N-[2-(1-methyl-4-piperidyl)ethyl]benzamide] | – | – | % Viability at 20 μg/mL (Jurkat cells): 0.7%
2.79 µM | 0.01 mg/mL (≈ 12.4 µM) | 0.01 mg/mL (≈ 12.4 µM) | C#Cc1cc(Nc2cc(Oc3ccc(NC(=O)Nc4cc(C(C)(C)C)cc(NS(C)(=O)=O)c4OC)c4ccccc34)ccn2)ccc1C(=O)NCCN1CCOCC1 [Example 15, 4-[[4-[[4-[[5-tert-Butyl-3-(methanesulfonamido)-2-methoxy-phenyl]carbamoylamino]-1-naphthyl]oxy]-2-pyridyl]amino]-2-ethynyl-N-(2-morpholinoethyl)benzamide] | – | – | % Viability at 5 μg/mL (Jurkat cells; 5 μg/mL): 75.0%
– | 0.017 mg/mL (≈ 19.9 µM) | 0.025 mg/mL (≈ 29.2 µM) | COc1cc(Nc2cc(Oc3ccc(NC(=O)Nc4cc(C(C)(C)C)cc(NS(C)(=O)=O)c4OC)c4ccccc34)ccn2)cc(OC)c1C(=O)NCCN1CCN(C)CC1 [Example 22, 4-((4-((4-(3-(5-(tert-Butyl)-2-methoxy-3-(methylsulfonamido)phenyl)ureido)naphthalen-1-yl)oxy)pyridin-2-yl)amino)-2,6-dimethoxy-N-(2-(4-methylpiperazin-1-yl)ethyl)benzamide] | > 3.7 µM | – | inhibition at 3.7 µM (hERG; 3.7 μM): 13%; solubility thermodynamic at 24 h ([3]; pH 6.5 FaSSCoF Solubility (mg/mL) Run 3): 0.013 mg/mL (≈ 15.2 µM); solubility thermodynamic at 24 h ([3]; pH 6.5 FaSSCoF Solubility (mg/mL) Run 4): 0.009 mg/mL (≈ 10.5 µM)
